Earlier results in patent publication US10610592B2, “Treatment of multiple sclerosis” (priority 2014, dated 2020).

How the values were obtained:
[1] = very prolonged elimination
[2] = patients treated with alemtuzumab

| Compound | elimination time [1] | patients who develop thyroid autoimmune diseases, and hematologic and renal complications [2] |
| --- | --- | --- |
| C/C(O)=C(\C#N)C(=O)Nc1ccc(C(F)(F)F)cc1 [Teriflunomide] | up to 2 years | – |
| Alemtuzumab: monoclonal antibody that binds to proteins (CD-52) on mature lymphocytes | – | Approximately 40% |
